Data reported in PMC8016166, “Identification of a Potent and Selective 5-HT1A Receptor Agonist with In Vitro and In Vivo Antinociceptive Activity” (ACS Chemical Neuroscience, 2020).

Legend:
[1] = tested on: superficial dorsal horn neurons (lamina I–II); assay: Patch-clamp recording from spinal cord slices; type: cell-based, mouse; details: for neurons showing slow outward current: voltage clamp −60 mV
Description: The Italian Ministry of Health approved all the experiments that were conducted on postnatal CD1 mice (P18–P25) in accordance with the Guide for the Care and Use of Laboratory Animals and the EU and Italian regulations on animal welfare. The spinal cord slices were obtained following the procedure described previously.[69],[70] Briefly, the animals were anesthetized with isoflurane and decapitated, the spinal cord and vertebrae were rapidly removed and placed in ice-cold dissecting Krebs’ solution (composition in mM:125 NaCl, 2.5 KCl, 1.25 NaH2PO4, 26 NaHCO3, 25 glucose, 6 MgCl2, 1.5 CaCl2, and 1 kynurenic acid, pH 7.4, 320 mOsm), bubbled with 95% O2, 5% CO2. The lumbar spinal cord was isolated, embedded in an agarose block (low melting point agarose 3%, Thermo Fisher Scientific, Waltham, USA), and transverse slices (500 μm thick) were obtained using a vibrating microtome (WPI, Sarasota, USA). The slices were incubated in oxygenated incubation Krebs’ solution (the same as dissecting but without kynurenic acid) at 35 °C for 30 min and used for recording. The Patch-clamp recording in whole-cell configuration was performed on lamina I–II neurons at room temperature. The slices were perfused at 2 mL/min with recording Krebs’solution (in mM: 125 NaCl, 2.5 KCl, 1.25 NaH2PO4, 26 NaHCO3, 25 glucose, 1 MgCl2, and 2 CaCl2, pH 7.4, 320 mOsm). Recordings of post-synaptic currents (EPSCs) were performed in voltage clamp, by using an intracellular solution with the following composition (in mM): 120 potassium methanesulfonate, 10 NaCl, 10 EGTA, 1 CaCl2, 10 HEPES, 5 ATP-Mg, pH adjusted to 7.2 with KOH, osmolarity 300 mOsm. 8-OH-DPAT was obtained from Sigma-Aldrich (Saint Louis, USA). The data were recorded and acquired using a Multiclamp 700A amplifier and the pClamp 10 software (Molecular Devices, Sunnyvale, USA). The sampling rate was 10 kHz, and the data were filtered at 2 kHz. The data were analyzed off-line using pClamp10 software and Minianalysis (Synaptosoft, USA). The data are expressed as the mean ± SEM and differences were considered significant for p < 0.05. The statistical significance for the effect on EPSC frequency was determined using the Kolmogorov–Smirnov test on individual neurons.

hERG = target: T1, hERG (Homo sapiens, UniProt Q12809); assay: CiPA hERG QPatch assay (hERG-CHO automated patch-clamp); type: cell-based; details: human, CHO cells expressing hERG (hERG-CHO), read-out: % inhibition of tail current in hERG-CHO
T1 construct: host or cells: CHO (hERG-CHO)
T1 sequence (Q12809 whole entry): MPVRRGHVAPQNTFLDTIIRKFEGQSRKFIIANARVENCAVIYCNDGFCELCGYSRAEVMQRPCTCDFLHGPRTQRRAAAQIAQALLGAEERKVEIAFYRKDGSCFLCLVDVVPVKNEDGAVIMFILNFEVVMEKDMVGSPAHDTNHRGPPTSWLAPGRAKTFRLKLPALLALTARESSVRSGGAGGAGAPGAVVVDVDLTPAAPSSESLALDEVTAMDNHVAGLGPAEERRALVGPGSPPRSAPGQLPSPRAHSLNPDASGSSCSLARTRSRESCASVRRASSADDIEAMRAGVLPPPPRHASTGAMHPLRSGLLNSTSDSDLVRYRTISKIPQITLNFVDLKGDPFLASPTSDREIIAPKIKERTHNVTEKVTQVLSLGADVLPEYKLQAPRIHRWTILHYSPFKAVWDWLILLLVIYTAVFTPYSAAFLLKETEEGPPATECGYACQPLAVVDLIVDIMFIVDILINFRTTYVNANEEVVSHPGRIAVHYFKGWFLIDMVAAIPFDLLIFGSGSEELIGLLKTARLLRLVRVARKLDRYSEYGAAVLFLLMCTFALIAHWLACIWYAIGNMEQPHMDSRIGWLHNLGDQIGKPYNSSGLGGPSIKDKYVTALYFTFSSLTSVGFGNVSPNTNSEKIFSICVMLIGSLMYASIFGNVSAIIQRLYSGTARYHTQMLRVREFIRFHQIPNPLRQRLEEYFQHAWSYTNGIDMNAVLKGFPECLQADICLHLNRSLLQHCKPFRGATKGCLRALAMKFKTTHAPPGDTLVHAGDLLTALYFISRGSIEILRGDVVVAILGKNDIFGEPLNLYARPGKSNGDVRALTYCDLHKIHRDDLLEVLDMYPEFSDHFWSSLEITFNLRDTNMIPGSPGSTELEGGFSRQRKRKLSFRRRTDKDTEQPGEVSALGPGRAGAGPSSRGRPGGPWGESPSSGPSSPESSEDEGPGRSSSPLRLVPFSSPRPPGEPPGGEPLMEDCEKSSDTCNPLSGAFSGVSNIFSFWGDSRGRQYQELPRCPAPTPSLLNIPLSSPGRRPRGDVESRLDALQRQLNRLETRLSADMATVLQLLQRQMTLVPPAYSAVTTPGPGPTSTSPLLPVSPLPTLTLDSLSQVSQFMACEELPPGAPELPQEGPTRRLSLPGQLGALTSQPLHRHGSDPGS
From the text: (§1) After whole cell configuration is achieved, the cell is held at −80 mV. A 500 ms pulse to −40 mV is delivered to measure the leaking current, which is subtracted from the tail current online. Then, the cell is depolarized to +40 mV for 500 ms and then to −80 mV over a 100 ms ramp to elicit the hERG tail current. This paradigm is delivered once every 8 s to monitor the current amplitude.
(§2) The parameters measured were the maximum tail current evoked on stepping to 40 mV and ramping back to −80 mV from the test pulse. All data were filtered for seal quality, seal drop, and current amplitude. The peak current amplitude was calculated before and after compound addition, and the amount of block was assessed by dividing the Test compound current amplitude by the Control current amplitude. Control is the mean hERG current amplitude collected 15 s at the end of the control; Test Compound is the mean hERG current amplitude collected in the presence of test compound at each concentration.

[2] = target: T2, human voltage gated potassium ion channel hERG (Homo sapiens, UniProt Q12809); assay: as above; type: cell-based; details: 0.1 and 1 μM, QPatch
T2 construct: host or cells: CHO (hERG-CHO)
T2 sequence (Q12809 whole entry): as above
From the text: as §1, §2

male Albino Swiss mice = assay: Hot plate test; type: in vivo, mouse
Description: The experiments were performed on male Albino Swiss mice (20–25 g), where 4 animals were kept in a cage, in an environmentally controlled room (ambient temperature 22 ± 1 °C; relative humidity 50–60%; 12 h light/dark cycle, lights on at 8:00). Standard laboratory food (LSM, Agropol-Motycz, Poland) and filtered water were available ad libitum. All the behavioral experiments were carried out in accordance with the European Community Council Directive for Care and Use of Laboratory Animals (2010/63/EU) (2016), and approved by the Local Ethics Committee for Animal Experimentation. The tested compounds were administered intraperitoneally (i.p.), dissolved in DMSO (its final concentration of 0.1%), suspended in 0.5% Tween-80 (1–2 drops) and then diluted using an aqueous solution of 0.5% methylcellulose (tylose). All the compounds were given in a manner generally accepted in experimental pharmacology, in a volume of 10 mL/kg body weight. The animals were weighed immediately before injection. Each group consisted of 8 members. The control animals received an equivalent volume of the solvent at the respective time before the tests. […] Between injections, the mice were provided with stable living conditions and unrestricted access to food and water. All the experiments were conducted in the light phase between 09.00 a.m. and 05.00 p.m. For the hot plate test, the mice were placed on a hot plate (Ugo Basile Srl, Gemonio, Italy) maintained at a constant temperature of 55 °C with a cutoff time of 20 s. The baseline latency response (in seconds), induced by the thermal stimulus, with the mouse lifting either of the hind paws or jumping with all four feet off the hot plate, before administration of a compound was measured first. The animals were then administered with compounds and the post-treatment latency responses were determined at 30 min time intervals up to 180 min after drug injection. The antinociceptive effects of the compounds were expressed as a percentage of maximum possible effect (%MPE), which was calculated according to the following equation: [(T1 – T0)/(20 – T0)] × 100, where T0 and T1 are the predrug and post-drug latencies for hot plate response, respectively.[37],[38] The results were calculated using the one-way analysis of variance (ANOVA) followed by Bonferroni’s post hoc test. The results are presented as the means ± standard errors of mean (S.E.M.). The level of p < 0.05 was considered statistically significant. All the figures were prepared using the GraphPad Prism ver. 5.00 for Windows (GraphPad Software, San Diego, CA, USA), www.graphpad.com.

5-HT1AR [3] = tested on: 5-HT1AR; design: method as in PMID 30043643; details: previous work, cited from earlier work; for potency pD2: agonist, GTPγS assay
5-HT1AR [4] = target: 5-HT1AR; design: method as in PMID 30043643; details: previous work; cited from earlier work
MDCK-MDR1 monolayers = tested on: MDCK-MDR1 monolayers; design: method as in PMID 30043643; details: cited from earlier work

c1ccc(C2(c3ccccc3)OC[C@H](CNCCOc3ccccc3-c3ccncc3)O2)cc1 [(S)-1, N-[(2,2-Diphenyl-1,3-dioxolan-4-yl)methyl]-2-[2-(pyridin-4-yl)phenoxy]ethan-1-ammonium hydrogenoxalate]
neurons showing sEPSC frequency decrease ([1]; 10 μM): 5 out of 12 | neurons showing outward current in presence of naloxone ([1]; 10 μM (S)-1, naloxone present): 5 out of 12 | neurons showing significant decrease in sEPSC frequency in presence of naloxone ([1]; 10 μM (S)-1, naloxone present): 6 out of 12 | outward current in presence of WAY-100635 ([1]; (S)-1 with WAY-100635 10 μM, 7 neurons tested): failed to evoke the outward currents | neurons showing slow outward current ([1]; bath application 10 μM): 5 out of 12 | inhibition at 0.1 µM (hERG; 0.1 μM): -3.35% | inhibition at 1 µM (hERG; 1 μM): 5.61% | inhibition at 10 µM (hERG; 10 μM): 66.7% | hERG inhibition [2]: does not inhibit hERG | reaction time to the thermal stimulus (hot plate) (male Albino Swiss mice; mice, 5 mg/kg i.p.): a significant effect was only noted at 120 and 180 min | reaction time to the thermal stimulus (hot plate) (male Albino Swiss mice; mice, 10 mg/kg i.p., 30, 90, 120 and 180 min): significantly increased | reaction time to the thermal stimulus (hot plate) (male Albino Swiss mice; mice, 20 mg/kg i.p., 30, 90, 120 and 180 min): significantly increased the reaction time | antinociceptive effect in hot plate with WAY-100635 (male Albino Swiss mice; mice, (S)-1 10 mg/kg + WAY-100635 3 mg/kg, at 30 min): significantly reversed the antinociceptive effect

Cn1cncc1-c1ccccc1OCCNCC1COC(c2ccccc2)(c2ccccc2)O1 (racemic) [rac-2, N-((2,2-diphenyl-1,3-dioxolan-4-yl)methyl)-2-(2-(1-methyl-1H-imidazol-5-yl)phenoxy)ethan-1-ammonium hydrogenoxalate]
potency pD2 (5-HT1AR [3]): 5.46 | relative effectiveness (Emax) (5-HT1AR [3]): 240% | 5-HT1AR affinity pKi (5-HT1AR [4]): 8.98

c1ccc(C2(c3ccccc3)OCC(CNCCOc3ccccc3-c3ccncc3)O2)cc1 (racemic) [rac-1, N-[(2,2-diphenyl-1,3-dioxolan-4-yl)methyl]-2-[2-(pyridin-4-yl)phenoxy]ethan-1-ammonium hydrogenoxalate]
potency pD2 (5-HT1AR [3]): 8.83 | neurons showing sEPSC frequency decrease ([1]; 50 μM): 7 out of 23 | neurons showing slow outward current ([1]; 50 μM): 5 out of 23 | neurons showing slow outward current ([1]; bath application 10 μM): not effective | 5-HT1AR affinity pKi (5-HT1AR [4]): 9.2 | efflux ratio (MDCK-MDR1 monolayers; MDCK-MDR1 monolayers): low | permeation of MDCK-MDR1 monolayers mimicking the BBB (MDCK-MDR1 monolayers): permeate, by passive diffusion | MPE values in the hot plate test (male Albino Swiss mice; mice, 5, 10 and 20 mg/kg i.p., 30-180 min): did not reveal any significant change in the MPE values
